melting point [°C]	Structure (SMILES)
229 to 230	CC(C)(O)c1ccoc1C(=O)c1[nH]c2cc(Cl)ccc2c1CC(=O)O [Example 238, [6-Chloro-2-[3-(1-hydroxy-1-methylethyl)-2-furoyl]1H-indol-3-yl]acetic Acid]
239 to 240	O=C(O)Cc1c(C(=O)c2cc3ccccc3cn2)[nH]c2ccc(Cl)cc12 [Example 221, [5-Chloro-2-(isoquinoline-3-carbonyl)-1H-indol-3-yl]acetic Acid]
186 to 188	CCOC(=O)Cc1c(C(=O)c2ccc(Cl)cc2)[nH]c2cc(Cl)ccc12 [Example 297, [6-Chloro-2-(4-chloro-benzoyl)-1H-indol-3-yl]-acetic Acid Ethyl Ester]
179 to 182	O=C(O)Cc1c(C(=O)c2ccc(Cl)c(F)c2)[nH]c2cc(Cl)ccc12 [Example 204, [6-Chloro-2-(4-chloro-3-fluorobenzoyl)-1H-indol-3-yl]acetic Acid]
231 to 233	Cc1cnc(C(=O)c2[nH]c3ccc(Cl)cc3c2CC(=O)O)s1 [Example 233, [5-Chloro-2-(5-methylthiazole-2-carbonyl)-1H-indol-3-yl]acetic Acid]
177 to 178	O=C(O)Cc1c(C(=O)c2cccs2)[nH]c2cc(Cl)ccc12 [Example 236, [6-Chloro-2-(2-thienyl)carbonylindol-3-yl]acetic Acid]
236 to 237	O=C(O)Cc1c(C(=O)c2cc3ccccc3cn2)[nH]c2cc(Cl)ccc12 [Example 223, [6-Chloro-2-(isoquinoline-3-carbonyl)-1H-indol-3-yl]acetic Acid]
215 to 216	Cc1nnsc1C(=O)c1[nH]c2cc(Cl)ccc2c1CC(=O)O [Example 231, [6-Chloro-2-(4-methyl-1,2,3-thiadiazole-5-carbonyl)-1H-indol-3-yl]acetic Acid]
195.9	Cc1ccnc(C(=O)c2[nH]c3ccc(Cl)cc3c2CC(=O)NCCO)c1 [Example 269, [5-Chloro-2-(4-methylpyridine-2-carbonyl)-1H-indol-3-yl]-N-(2-hydroxyethyl)acetamide]
226 to 228	Cc1cnc(C(=O)c2[nH]c3cc(Cl)ccc3c2CC(=O)O)cc1C [Example 104, [6-Chloro-2-(4,5-dimethylpyridine-2-carbonyl)-1 H-indol-3-yl]acetic Acid]
253 to 255	Cc1cc(C(=O)c2[nH]c3ccc(Cl)cc3c2CC(=O)O)no1 [Example 225, [5-Chloro-2-(5-methylisoxazole-3-carbonyl)-1H-indol-3-yl]acetic Acid]
245 to 246	Cc1cnc(C(=O)c2[nH]c3ccc(Cl)cc3c2CC(=O)O)cc1C [Example 102, [5-Chloro-2-(4,5-dimethylpyridine-2-carbonyl)-1H-indol-3-yl]acetic Acid]
225 to 226	Cc1cnc(C(=O)c2[nH]c3cc(Cl)ccc3c2CC(=O)O)s1 [Example 235, [6Chloro-2-(5-methylthiazole-2-carbonyl)-1H-indol-3-yl]acetic Acid]
124 to 127	CCOC(=O)C=Cc1ccc(Cl)cc1NS(=O)(=O)c1ccc(C)cc1 [Example 293, 3-[4-Chloro-2-(toluene-4-sulfonylamino)-phenyl]-acrylic Acid Ethyl Ester]
199 to 200	Cc1cnc(C(=O)c2[nH]c3cc(Cl)ccc3c2CC(=O)O)c(C)c1 [Example 110, [6-Chloro-2-(3,5-dimethylpyridine-2-carbonyl)-1H-indol-3-yl]acetic Acid]
162 to 165	CCOC(=O)C=Cc1ccc(Cl)cc1N(CC(=O)c1ccc(Cl)cc1)S(=O)(=O)c1ccc(C)cc1 [Example 295, 3-{4-Chloro-2-[[2-(4-chloro-phenyl)-2-oxo-ethyl]-(toluene-4-sulfonyl)-amino]-phenyl}-acrylic Acid Ethyl Ester]

The remaining lines, values behind:

Structure (SMILES)	melting point [°C]
O=C(O)Cc1c(C(=O)c2cc(CO)ccn2)[nH]c2ccc(Cl)cc12 [Example 98, [5-Chloro-2-[4-(hydroxymethyl)pyridine-2-carbonyl]-1H-indol-3-yl]acetic Acid]	218 to 219
Cc1ccnc(C(=O)c2[nH]c3ccc(Cl)cc3c2CC(=O)O)c1 [Example 36, [5-Chloro-2-(4-methylpyridine-2-carbonyl)-1H-indol-3-yl]acetic Acid]	230 to 231
O=C(O)Cc1c(C(=O)c2cccnc2)[nH]c2cc(Cl)ccc12 [Example 92, [6-Chloro-2-(pyridine-3-carbonyl)-1H-indol-3-yl]acetic Acid]	267 to 268
O=C(O)Cc1c(C(=O)c2ccccc2)[nH]c2cc(Cl)ccc12 [Example 2, (2-Benzoyl-6-chloro-1H-indol-3-yl)acetic Acid]	183 to 186
O=C(O)Cc1c(C(=O)c2cc(Cl)ccn2)[nH]c2ccc(Cl)cc12 [Example 90, [5-Chloro-2-(4-chloropyridine-2-carbonyl)-1H-indol-3-yl]acetic Acid]	243 to 244
CC(C)(C)c1ccnc(C(=O)c2[nH]c3ccc(Cl)cc3c2CC(=O)O)c1 [Example 72, [2-(4-tert-Butylpyridine-2-carbonyl)-5-chloro-1H-indol-3-yl]acetic Acid]	209 to 211
Cc1ccnc(C(=O)c2[nH]c3ccc(Cl)cc3c2CC(=O)O)c1C [Example 100, [5-Chloro-2-(3,4-dimethylpyridine-2-carbonyl)-1H-indol-3-yl]acetic Acid]	236 to 237
Cc1cccnc1C(=O)c1[nH]c2cc(Cl)ccc2c1CC(=O)O [Example 74, [6-Chloro-2-(3-methylpyridine-2-carbonyl)-1H-indol-3-yl]acetic Acid]	195 to 196
Cc1ccc(C(=O)c2[nH]c3ccc(Cl)cc3c2CC(=O)O)nc1 [Example 80, [5-Chloro-2-(5-methylpyridine-2-carbonyl)-1H-indol-3-yl]acetic Acid]	247 to 248
Cc1cccc(C(=O)c2[nH]c3cc(Cl)ccc3c2CC(=O)O)n1 [Example 78, [6-Chloro-2-(6-methylpyridine-2-carbonyl)-1H-indol-3-yl]acetic Acid]	230 to 231
CCc1ccnc(C(=O)c2[nH]c3ccc(Cl)cc3c2CC(=O)O)c1 [Example 60, [5-Chloro-2-(4-ethylpyridine-2-carbonyl)-1H-indol-3-yl]acetic Acid]	217 to 218
CC(C)(C)c1ccnc(C(=O)c2[nH]c3cc(Cl)ccc3c2CC(=O)O)c1 [Example 70, [2-(4-tert-Butylpyridine-2-carbonyl)-6-chloro-1H-indol-3-yl]acetic Acid]	203 to 205
O=C(O)Cc1c(C(=O)c2nccs2)[nH]c2ccc(Cl)cc12 [Example 41, [5-Chloro-2-(thiazole-2-carbonyl)-1H-indol-3-yl]acetic Acid]	230 to 231
CC(C)c1ccnc(C(=O)c2[nH]c3ccc(Cl)cc3c2CC(=O)O)c1 [Example 64, [5-Chloro-2-(4-isopropylpyridine-2-carbonyl)-1H-indol-3-yl]acetic Acid]	227 to 228
O=C(O)Cc1c(C(=O)c2ccc(Cl)cn2)[nH]c2ccc(Cl)cc12 [Example 86, [5-Chloro-2-(5-chloropyridine-2-carbonyl)-1H-indol-3-yl]acetic Acid]	259 to 260
